Test results reported in PubChem BioAssay (NCI).
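A five-concentration, 48-hour dose response in 96-well plates underlies each endpoint, interpolated linearly between surrounding concentrations. The concentration for full growth arrest is given as TGI.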

Legend:
Assay in all cases: DTP human tumour cell line panel, 48 h
NCI/ADR-RES ovarian = test system: NCI/ADR-RES ovarian
SR leukemia = test system: SR leukemia
ACHN renal = test system: ACHN renal
SNB-19 CNS = test system: SNB-19 CNS
T-47D breast = test system: T-47D breast
MCF7 breast = test system: MCF7 breast
SW-620 colon = test system: SW-620 colon
HL-60(TB) leukemia = test system: HL-60(TB) leukemia
NCI-H23 lung = test system: NCI-H23 lung
SK-MEL-5 melanoma = test system: SK-MEL-5 melanoma
HT29 colon = test system: HT29 colon
CCRF-CEM leukemia = test system: CCRF-CEM leukemia
SF-539 CNS = test system: SF-539 CNS
IGROV1 ovarian = test system: IGROV1 ovarian
HCT-15 colon = test system: HCT-15 colon
HCC-2998 colon = test system: HCC-2998 colon
EKVX NSCLC = test system: EKVX NSCLC
UO-31 renal = test system: UO-31 renal
SNB-75 CNS = test system: SNB-75 CNS
NCI-H522 lung = test system: NCI-H522 lung
OVCAR-3 ovarian = test system: OVCAR-3 ovarian
SK-OV-3 ovarian = test system: SK-OV-3 ovarian
PC-3 prostate = test system: PC-3 prostate
SK-MEL-28 melanoma = test system: SK-MEL-28 melanoma
HCT-116 colon = test system: HCT-116 colon
OVCAR-8 ovarian = test system: OVCAR-8 ovarian
OVCAR-5 ovarian = test system: OVCAR-5 ovarian
RPMI-8226 leukemia = test system: RPMI-8226 leukemia
SF-295 CNS = test system: SF-295 CNS
M14 melanoma = test system: M14 melanoma
K-562 leukemia = test system: K-562 leukemia
UACC-257 melanoma = test system: UACC-257 melanoma
COLO 205 colon = test system: COLO 205 colon
CAKI-1 renal = test system: CAKI-1 renal
HOP-62 NSCLC = test system: HOP-62 NSCLC
BT-549 breast = test system: BT-549 breast
OVCAR-4 ovarian = test system: OVCAR-4 ovarian
MOLT-4 leukemia = test system: MOLT-4 leukemia
SK-MEL-2 melanoma = test system: SK-MEL-2 melanoma
MDA-MB-231 breast = test system: MDA-MB-231 breast
KM12 colon = test system: KM12 colon
UACC-62 melanoma = test system: UACC-62 melanoma
786-0 renal = test system: 786-0 renal
HOP-92 NSCLC = test system: HOP-92 NSCLC
A498 renal = test system: A498 renal
LOX IMVI melanoma = test system: LOX IMVI melanoma
U251 CNS = test system: U251 CNS
MALME-3M melanoma = test system: MALME-3M melanoma
MDA-MB-435 = test system: MDA-MB-435
NCI-H226 lung = test system: NCI-H226 lung
SN12C renal = test system: SN12C renal
MDA-N = test system: MDA-N
A549 NSCLC = test system: A549 NSCLC
TK-10 renal = test system: TK-10 renal

Measured: TGI

O=c1c2ccc(Cl)cc2oc2c(CNc3ccc(S(=O)(=O)Nc4ncccn4)cc3)cccc12
> 100 µM: all assays above
